Counter-ions that a name gives are not always drawn. Like-named read-outs stand apart in the source and are kept apart here.
How the values were obtained:
human GLP-1R [1] = target: human GLP-1R (Homo sapiens, UniProt P43220, L260F); test: CHO GLP-1R Clone C6 cAMP HTRF agonist assay (Assay 2, low receptor density); assay type: cell-based; settings: for EC50: CHO GLP-1R clone C6, cAMP HTRF, geometric mean; for Emax: CHO GLP-1R clone C6, arithmetic mean, relative to saturating GLP-1 (1 μM)
Text: In Table 5 and Table 6, assay data are presented to two (2) significant figures as the geometric mean (EC50s) and arithmetic mean (Emax) based on the number of replicates listed (Number). A blank cell means there was no data for that Example or the Emax was not calculated.

human GLP-1R [2] = target: human GLP-1R (Homo sapiens, UniProt P43220, G168S); test: CHO GLP-1R Clone H6 cAMP HTRF agonist assay (Assay 1, high receptor density); assay type: cell-based; settings: for EC50: CHO GLP-1R clone H6, cAMP HTRF, geometric mean; for Emax: read-out: Assay 1 Emax (%)
human GLP-1R (Homo sapiens, UniProt P43220, G168S), sequence (P43220 24-463 G168S): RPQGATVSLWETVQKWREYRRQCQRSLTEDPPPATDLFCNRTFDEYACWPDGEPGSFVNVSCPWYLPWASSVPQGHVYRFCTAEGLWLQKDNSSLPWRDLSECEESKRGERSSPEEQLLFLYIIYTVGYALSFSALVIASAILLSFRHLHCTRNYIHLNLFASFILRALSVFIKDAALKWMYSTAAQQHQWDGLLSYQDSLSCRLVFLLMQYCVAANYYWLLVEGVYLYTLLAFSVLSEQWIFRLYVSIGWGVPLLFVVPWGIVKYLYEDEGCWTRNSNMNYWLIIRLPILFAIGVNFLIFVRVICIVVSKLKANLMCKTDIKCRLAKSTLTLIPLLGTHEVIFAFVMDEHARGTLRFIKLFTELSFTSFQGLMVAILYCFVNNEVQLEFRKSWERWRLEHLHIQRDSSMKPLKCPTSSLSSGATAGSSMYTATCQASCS
Method in brief: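 EC50 values are reported as geometric means and Emax as arithmetic means across the listed number of replicates, both given to two significant figures.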

[3] = CHO GLP-1R clone H6, arithmetic mean, relative to saturating GLP-1 (1 μM)

human GLP-1R (Homo sapiens, UniProt P43220, L260F), sequence (P43220 24-463 L260F): as the sequence (P43220 24-463 G168S) above, with S145G, L237F counted along it

EC50 (human GLP-1R [1]) [µM]	Emax (human GLP-1R [1]) [%]	EC50 (human GLP-1R [2]) [µM]	Emax (human GLP-1R [2]; [3]) [%]	SMILES	Emax (human GLP-1R [2]) [%]
0.41	75	0.011	71	CN1CCCC(Cn2c(CN3CCC(c4cccc(OCc5ccc(Cl)cc5F)n4)CC3)nc3ccc(C(=O)O)cc32)C1 (stereo not shown) [Compound 279B, 2-[(4-{6-[(4-chloro-2-fluorobenzyl)oxy]pyridin-2-yl}piperidin-1-yl)methyl]-1-[(1-methylpiperidin-3-yl)methyl]-1H-benzimidazole-6-carboxylic acid]	–
0.055	75	0.0019	63	N#Cc1ccc(COc2cccc(C3CCN(Cc4nc5ccc(C(=O)O)cc5n4CC4CCCO4)CC3)n2)cc1 (stereo not shown) [Compound 359B, 2-[(4-{6-[(4-cyanobenzyl)oxy]pyridin-2-yl}piperidin-1-yl)methyl]-1-(tetrahydrofuran-2-ylmethyl)-1H-benzimidazole-6-carboxylic acid]	–
–	70	–	84	[2H]C([2H])(Oc1cccc(C2CCN(Cc3nc4ccc(C(=O)O)cc4n3C[C@@H]3CCO3)CC2)n1)c1ccc(C#N)cc1F [Compound 112B, 2-{[4-(6-{[(4-cyano-2-fluorophenyl)(methyl-d2)]oxy}pyridin-2-yl)piperidin-1-yl]methyl}-1-[(2S)-oxetan-2-ylmethyl]-1H-benzimidazole-6-carboxylic acid]	–
0.45	89	0.028	80	COCCN1CCC(Cn2c(CN3CCC(c4cccc(OCc5ccc(Cl)cc5F)n4)CC3)nc3ccc(C(=O)O)cc32)CC1 [Compound 287B, 2-[(4-{6-[(4-chloro-2-fluorobenzyl)oxy]pyridin-2-yl}piperidin-1-yl)methyl]-1-{[1-(2-methoxyethyl)piperidin-4-yl]methyl}-1H-benzimidazole-6-carboxylic acid]	–
0.014	95	0.00096	80	O=C(O)c1ccc2nc(CN3CCC(c4cccc(OCc5ccc(Cl)cc5F)n4)CC3)n(Cc3ncco3)c2c1 [Compound 156B, 2-[(4-{6-[(4-chloro-2-fluorobenzyl)oxy]pyridin-2-yl}piperidin-1-yl)methyl]-1-(1,3-oxazol-2-ylmethyl)-1H-benzimidazole-6-carboxylic acid]	–
0.072	87	0.005	65	Cc1nnc(Cn2c(CN3CCC(c4cccc(OCc5ccc(Cl)cc5F)n4)CC3)nc3ccc(C(=O)O)cc32)o1 [Compound 254B, 2-[(4-{6-[(4-chloro-2-fluorobenzyl)oxy]pyridin-2-yl}piperidin-1-yl)methyl]-1-[(5-methyl-1,3,4-oxadiazol-2-yl)methyl]-1H-benzimidazole-6-carboxylic acid]	–
0.15	84	0.006	73	N#Cc1ccc(COc2cccc(C3CCN(Cc4nc5ccc(C(=O)O)cc5n4Cc4cnco4)CC3)n2)c(F)c1 [Compound 141B, 2-[(4-{6-[(4-cyano-2-fluorobenzyl)oxy]pyridin-2-yl}piperidin-1-yl)methyl]-1-(1,3-oxazol-5-ylmethyl)-1H-benzimidazole-6-carboxylic acid]	–
0.33	96	0.025	78	CN1CCOC(CCn2c(CN3CCC(c4cccc(OCc5ccc(Cl)cc5F)n4)CC3)nc3ccc(C(=O)O)cc32)C1 (stereo not shown) [Compound 286B, 2-[(4-{6-[(4-chloro-2-fluorobenzyl)oxy]pyridin-2-yl}piperidin-1-yl)methyl]-1-[2-(4-methylmorpholin-2-yl)ethyl]-1H-benzimidazole-6-carboxylic acid]	–
0.099	81	0.006	73	Cn1c(CN2CCC(c3cccc(OCc4ccc(OC(F)(F)F)cc4)n3)CC2)nc2ccc(C(=O)O)cc21 [Compound 228B, 1-methyl-2-{[4-(6-{[4-(trifluoromethoxy)benzyl]oxy}pyridin-2-yl)piperidin-1-yl]methyl}-1H-benzimidazole-6-carboxylic acid]	–
1.4	83	0.046	66	COCCn1c(CN2CCN(c3cccc(OCc4ccc(Cl)cc4F)n3)CC2(C)C)nc2ccc(C(=O)O)cc21 [Compound 352B, 2-[(4-{6-[(4-chloro-2-fluorobenzyl)oxy]pyridin-2-yl}-2,2-dimethylpiperazin-1-yl)methyl]-1-(2-methoxyethyl)-1H-benzimidazole-6-carboxylic acid]	–
0.068	81	0.0028	82	COCCn1c(CN2CC[C@H](c3cccc(OCc4ccc(Cl)cc4F)n3)[C@@H](O)C2)nc2ccc(C(=O)O)cc21 (racemic) [Compound 190B, rac-2-{[(3S,4S)-4-{6-[(4-chloro-2-fluorobenzyl)oxy]pyridin-2-yl}-3-hydroxypiperidin-1-yl]methyl}-1-(2-methoxyethyl)-1H-benzimidazole-6-carboxylic acid]	–
0.0022	97	0.00034	89	COCCn1c(CN2CCN(c3cccc(OCc4ccc(Cl)cc4F)n3)[C@@H](CO)C2)nc2ccc(C(=O)O)cc21 [Compound 185B, 2-{[(3R)-4-{6-[(4-chloro-2-fluorobenzyl)oxy]pyridin-2-yl}-3-(hydroxymethyl)piperazin-1-yl]methyl}-1-(2-methoxyethyl)-1H-benzimidazole-6-carboxylic acid]	–
2.2	–	0.11	79	O=C(O)c1ccc2nc(CN3CCC(c4cccc(OCc5ccc(Cl)cc5F)n4)CC3)n(Cc3cc[nH]n3)c2c1 [Compound 299B, 2-[(4-{6-[(4-chloro-2-fluorobenzyl)oxy]pyridin-2-yl}piperidin-1-yl)methyl]-1-(1H-pyrazol-3-ylmethyl)-1H-benzimidazole-6-carboxylic acid]	–
0.53	97	0.019	76	O=C(O)c1ccc2nc(CN3CCC(c4cccc(OCc5ccc(F)cc5F)n4)CC3)n(C[C@@H]3CCO3)c2c1 [Compound 117B, 2-[(4-{6-[(2,4-difluorobenzyl)oxy]pyridin-2-yl}piperidin-1-yl)methyl]-1-[(2S)-oxetan-2-ylmethyl]-1H-benzimidazole-6-carboxylic acid]	–
0.57	93	0.03	73	Cc1n[nH]c(Cn2c(CN3CCC(c4cccc(OCc5ccc(Cl)cc5F)n4)CC3)nc3ccc(C(=O)O)cc32)n1 [Compound 334B, 2-[(4-{6-[(4-chloro-2-fluorobenzyl)oxy]pyridin-2-yl}piperidin-1-yl)methyl]-1-[(3-methyl-1H-1,2,4-triazol-5-yl)methyl]-1H-benzimidazole-6-carboxylic acid]	–
0.028	88	0.0016	83	O=C(O)c1ccc2nc(CN3CCC(c4cccc(OCc5ccc(Cl)cc5F)n4)CC3)n(CCO)c2c1 [Compound 262B, 2-[(4-{6-[(4-chloro-2-fluorobenzyl)oxy]pyridin-2-yl}piperidin-1-yl)methyl]-1-(2-hydroxyethyl)-1H-benzimidazole-6-carboxylic acid]	–
0.023	110	0.0034	86	Cn1c(CN2CCC(c3cccc(OCc4ccccc4)n3)CC2)nc2ccc(C(=O)O)cc21 [Compound 221B, 2-((4-(6-(Benzyloxy)pyridin-2-yl)piperidin-1-yl)methyl)-1-methyl-1H-benzo[d]imidazole-6-carboxylic acid]	–
5.6	86	0.26	88	C[C@H]1CN(c2cccc(OCc3ccc(Cl)cc3F)n2)CCN1Cc1nc2ccc(C(=O)O)cc2n1C[C@@H]1CCO1 [Compound 135B, 2-{[(2S)-4-{6-[(4-chloro-2-fluorobenzyl)oxy]pyridin-2-yl}-2-methylpiperazin-1-yl]methyl}-1-[(2S)-oxetan-2-ylmethyl]-1H-benzimidazole-6-carboxylic acid]	–
0.2	81	0.021	82	CN1CCCCC1Cn1c(CN2CCC(c3cccc(OCc4ccc(Cl)cc4F)n3)CC2)nc2ccc(C(=O)O)cc21 (stereo not shown) [Compound 285B, 2-[(4-{6-[(4-chloro-2-fluorobenzyl)oxy]pyridin-2-yl}piperidin-1-yl)methyl]-1-[(1-methylpiperidin-2-yl)methyl]-1H-benzimidazole-6-carboxylic acid]	–
0.17	85	0.009	82	N#Cc1ccc(COc2cccc(N3CCN(Cc4nc5ccc(C(=O)O)cc5n4Cc4cnco4)CC3)n2)c(F)c1 [Compound 142B, 2-[(4-{6-[(4-cyano-2-fluorobenzyl)oxy]pyridin-2-yl}piperazin-1-yl)methyl]-1-(1,3-oxazol-5-ylmethyl)-1H-benzimidazole-6-carboxylic acid]	–
0.91	94	0.081	77	O=C(O)c1ccc2nc(CN3CCC(c4cccc(OCc5ccc(Cl)cc5F)n4)CC3)n(C[C@@H]3CCO3)c2c1 [Compound 107B, 2-[(4-{6-[(4-chloro-2-fluorobenzyl)oxy]pyridin-2-yl}piperidin-1-yl)methyl]-1-[(2S)-oxetan-2-ylmethyl]-1H-benzimidazole-6-carboxylic acid]	–

SMILES	EC50 (human GLP-1R [1]) [µM]	Emax (human GLP-1R [1]) [%]	EC50 (human GLP-1R [2]) [µM]	Emax (human GLP-1R [2]; [3]) [%]	Emax (human GLP-1R [2]) [%]
Cn1c(CN2CCC(c3cccc(OCc4ccc(Cl)cc4F)n3)CC2)nc2ccc(C(=O)O)nc21 [Compound 199B, 2-((4-(6-((4-Chloro-2-fluorobenzyl)oxy)pyridin-2-yl)piperidin-1-yl)methyl)-3-methyl-3H-imidazo[4,5-b]pyridine-5-carboxylic acid hydrochloride]	0.045	83	0.0017	–	67
